In patent publication EP2364976B1, “S1P receptor modulating compounds and use thereof” (EPIX Pharmaceuticals, Inc., priority 2007, dated 2007) one finds EC50 data, which are given here for 27 compounds.

T1 sequence (P21453 whole entry): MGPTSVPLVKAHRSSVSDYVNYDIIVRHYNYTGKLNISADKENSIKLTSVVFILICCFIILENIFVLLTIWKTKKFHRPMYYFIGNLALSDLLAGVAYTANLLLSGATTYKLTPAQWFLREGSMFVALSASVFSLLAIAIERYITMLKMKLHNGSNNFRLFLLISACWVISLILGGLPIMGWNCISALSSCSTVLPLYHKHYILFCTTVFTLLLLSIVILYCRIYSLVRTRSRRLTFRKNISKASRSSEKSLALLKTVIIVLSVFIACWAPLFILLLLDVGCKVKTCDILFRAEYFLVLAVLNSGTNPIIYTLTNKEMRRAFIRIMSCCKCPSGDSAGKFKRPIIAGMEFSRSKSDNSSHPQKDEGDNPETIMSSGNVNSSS

This experiment addresses T1, hS1P1 (Homo sapiens, UniProt P21453).
T1 construct: expressed in transfected cells
Kind of experiment: hS1P1 EC50 (S1P receptor Ca2+ flux protocol, FLIPR, CHO K1 Gqi5 cells). It is filed as cell-based. The following applies: several values per compound = repeat determinations as printed. As for the experimental part: S1P receptor activity may also be measured by an SIP receptor (e.g., hS1P1, hS1P3, rS1P1, rS1P3 and parental cell) Ca^2+ Flux protocol as described below: • 1. Material • a. FLIPR buffer: 1x HBSS; 10mM HEPES • b. Cell growth media: • i. human and rat S1P1 and S1P3: F12-Ham's media; 10% FBS (qualified); 1x Pen/Strep/Glu; 300ug/mL Hygromycin; 400ug/mL Geneticin ii. Parental cell: human and rat S1P and S1P3: F12-Ham's media; 10% FBS (qualified); 1x Pen/Strep/Glu; 300ug/mL Hygromycin; • c. Cell seeding media; F12-Ham's media; 10% FBS (Charcoal/dextran stripped); 1x Pen/Strep/Glu; • d. Cell dissociation buffer: Versene from Invitrogen • e. Agonist (SIP) dissolving buffer: 0.4% (w/v) fatty-acid free BSA (Sigma # A8806) in FLIPR buffer • f. FLIPR dye: BD PBX Calcium assay kit; Cat#641077 is composed of Calcium indicator (Cat#850000) and 100x PBX signal enhancer (cat#850001). The 100x PBX signal enhancer is diluted into FLIPR buffer 1:100 and the calcium indicator is then added at 1:1000 ratio. • g. Cell plates (96-well): Greiner Cat#655090 • h. Compound plates (96-well): Costar #3365 • i. S1P stock solution preparation: S1P is purchased from CalBioChem (Catalog # 970471; 1mg vial; custom prep using methanol, & nitrogen gas drying inside glass vial; Storage @ -20°C). Dissolve 1 vial of SIP into 26.4ml of agonist dissolving buffer in a 50ml centrifuge tube; Remove label from bottle of SIP, open and drop entire bottle into tube. Sonicate at 37° for ½ hour. Clear solution of 100µM will result. This stock solution is aliquoted and stored at -80C • 2. Cell line maintenance • a. V5 tags were added at the N-terminus of hS1P1, hS1P3, rS1P1 and rS1P3. All four genes were transfected into CHO K1 cells which stably express Gqi5. • b. hS1P1 and hS1P3 were established as stable clones and rS1P1 and rS1P3 were sorted by anti V5 tag and established as stable pools after sorting. • c. Parental cell line CHO/K1 Gqi5 is used as the control. • d. All the cells are maintained in cell growth media and splitted twice a week using Versene. • e. All the cell lines are used under passage 30. • 3. Assay protocol • a. Cell seeding: Cells are lifted from the flask by Versene and seeded in cell plates at 50K/well in cell seeding media. Cells are grown overnight at 37 degree. • b. Cell loading: Cell seeding media is discarded. Cells are loaded with 50ul of FLIPR dye at RT for 90 min. Signal is stable for up to 5 h after dye loading. • c. Agonist (S1P) preparation: Frozen stock of S1P is thawed out and sonicated at 37c for 30 minutes every time before use. The stock is then diluted into FLIPR buffer at proper concentration. • d. Compound preparation: Compounds are dissolved in DMSO. A 3x, 10 point dilution of the compounds are carried out in DMSO. Then the compounds are diluted into assay buffer133x so that the DMSO concentration is 0.75%. • e. Activity measurement: The fluorescence signal change of the cells upon compound addition is monitored in FLIPRtetra. 25ul of compound is transferred into the cell plates (50ul of FLIPR dye; DMSO concentration: 0.25%). Signal is recorded for 90sec after compound addition. Then 50ul of 500nM SIP is added in the cell plate, and signal is recorded for 90 seconds upon addition. • 4. Data analysis • a. Peak value is calculated for each compound/S1P addition • b. The peak value of S1P at 200nM is used as high control (100%), and the peak value of buffer only is used as low control (0%). • c. Data is normalized against high and low controls using the following equation: POC_S = 100*(RAW-LO)/(HI-LO) [formula] • d. Peak value is plotted against the concentration of compound. • e. Curve is fitted using the 4 parameter fit: Y = (A+(B/(1+(((x/C))^(∧)D)))) [formula] where: Y is POC_S (or POC) • X is compound concentration • A is the minimum (EC50min or IC50min) • B is the maxmum (EC50max or IC50max) • C is the inflection point (EC50IP or IC50IP) • D is the hill slope (EC50 slope or IC50 slope).
For `O=C(O)C1CN(Cc2ccc(-c3cc4cc(Sc5ccccc5)ccc4o3)c(F)c2)C1` [Reference Compound 64], the EC50 turned out to be 142 nM.
`O=C(O)C1CN(Cc2ccc(-c3cc4cc([S+]([O-])c5ccccc5)ccc4o3)c(F)c2)C1` (stereo not drawn) [Reference Compound 65] displayed an EC50 of 67 nM.
`O=C(O)C1CN(Cc2ccc(-c3cc4cc(COCC5CC5)ccc4o3)c(F)c2)C1` [Reference Compound 66]: the response was half-maximal at 75 nM (EC50).
The compound `O=C(O)C1CN(Cc2ccc(-c3cc4cc(COC5CCC5)ccc4o3)c(F)c2)C1` [Reference Compound 67, 1-(4-(5-(Cyclobutoxymethyl)benzofuran-2-yl)-3-fluoro-benzyl)azetidine-3-carboxylic acid] had an EC50 of 25 nM. Against the preceding compound, the EC50 is about 3-fold lower.
`O=C(O)C1CN(Cc2ccc(-c3cc4ccccc4o3)c(F)c2)C1` [Reference Compound 68, 1-(4-(benzofuran-2-yl)-3-fluoro-benzyl)azetidine-3-carboxylic acid] yielded an EC50 of 706 nM.
Turning to `O=C(O)C1CN(Cc2ccc(-c3cc4cc(COc5ccccc5)ccc4o3)c(F)c2)C1` [Reference Compound 69, 1-(3-Fluoro-4-(5-(phenoxymethyl)benzofuran-2-yl)benzyl)azetidine-3-carboxylic acid], the EC50 stood at 87 nM.
As for `O=C(O)C1CN(Cc2ccc(-c3cc4cc(COC5CCCCC5)ccc4o3)c(F)c2)C1` [Reference Compound 70], the EC50 came to 91 nM.
Compound `O=C(O)C1CN(Cc2ccc(-c3cc4cc(Cc5ccc(F)cc5)ccc4o3)c(F)c2)C1` [Reference Compound 73, 1-(3-fluoro-4-(5-(4-fluorobenzyl)benzofuran-2-yl)benzyl)azetidine-3-carboxylic acid] returned an EC50 of 53 nM.
On to `O=C(O)C1CN(Cc2ccc(-c3cc4cc(CC5CCCCC5)ccc4o3)c(F)c2)C1` [Reference Compound 74, 1-(4-(5-(Cyclohexylmethyl)benzofuran-2-yl)-3-fluorobenzyl)azetidine-3-carboxylic acid], for which the EC50 amounted to 400 nM.
Consider `O=C(O)C1CN(Cc2ccc(-c3cc4cc(Cc5ccccc5F)ccc4o3)c(F)c2)C1` [Reference Compound 75, 1-(3-Fluoro-4-(5-(2-fluorobenzyl)benzofuran-2-yl)benzyl)azetidine-3-carboxylic acid], for which the EC50 stood at 129 nM.
In the case of `O=C(O)C1CN(Cc2ccc(-c3cc4cc(Cc5cccc(F)c5)ccc4o3)c(F)c2)C1` [Reference Compound 76, 1-(3-Fluoro-4-(5-(3-fluorobenzyl)benzofuran-2-yl)benzyl)azetidine-3-carboxylic acid] it was 169 nM; in that of `O=C(O)C1CN(Cc2ccc(-c3cc4cc(Oc5ccccc5)ccc4o3)c(F)c2)C1` [Reference Compound 77, 1-(3-Fluoro-4-(5-phenoxybenzofuran-2-yl)benzyl)azetidine-3-carboxylic acid], 13 nM; in that of `Fc1cc(CN2CC(c3nn[nH]n3)C2)ccc1-c1cc2cc(Cc3ccccc3)ccc2o1` [Reference Compound 78, 5-(1-(4-(5-Benzylbenzofuran-2-yl)-3-fluorobenzyl)azetidin-3-yl)-2H-tetrazole], 2090 nM.
In the case of `O=C(O)C1CN(Cc2ccc(-c3ccc4oc(Cc5ccccc5)cc4c3)c(F)c2)C1` [Reference Compound 80, 1-(4-(2-Benzylbenzofuran-5-yl)-3-fluorobenzyl)azetidine-3-carboxylic acid] it was 59 nM.
With `O=C(O)C1CN(Cc2ccc(-c3cc4cc(Cc5ccccc5)ccc4s3)c(F)c2)C1` [Reference Compound 81, 1-(4-(5-Benzylbenzo[b]thiophen-2-yl)-3-fluorobenzyl)azetidine-3-carboxylic acid] the figure was 11 nM; with `CC(CNCc1ccc(-c2cc3cc(Cc4ccccc4)ccc3o2)c(F)c1)C(=O)O` (stereo not drawn) [Reference Compound 82, 3-(4-(5-Benzylbenzofuran-2-yl)-3-fluorobenzylamino)-2-methylpropanoic acid], 1300 nM.
Turning to `NC(=O)CC(NCc1ccc(-c2cc3cc(Cc4ccccc4)ccc3o2)c(F)c1)C(=O)O` (stereo not drawn) [Reference Compound 83, 4-Amino-2-(4-(5-benzylbenzofuran-2-yl)-3-fluorobenzylamino)-4-oxobutanoic acid], the EC50 is 2300 nM.
With `O=C(O)C1CN(Cc2cnc(-c3cc4cc(Cc5ccccc5)ccc4o3)c(F)c2)C1` [Reference Compound 84, 1-((6-(5-Benzylbenzofuran-2-yl)-5-fluoropyridin-3-yl)methyl)azetidine-3-carboxylic acid], a half-maximal effect (EC50) was put at 470 nM.
As for `NC(=O)C(CC(=O)O)NCc1ccc(-c2cc3cc(Cc4ccccc4)ccc3o2)c(F)c1` (stereo not drawn) [Reference Compound 85, 4-Amino-3-(4-(5-benzylbenzofuran-2-yl)-3-fluorobenzylamino)-4-oxobutanoic acid], the EC50 amounted to 1880 nM.
In turn, `Cc1ccc(Cc2ccc3oc(-c4ccc(CN5CC(C(=O)O)C5)cc4F)cc3c2)cc1` [Reference Compound 86, 1-(3-Fluoro-4-(5-(4-methylbenzyl)benzofuran-2-yl)benzyl)azetidine-3-carboxylic acid] gave an EC50 of 12 nM.
`O=C(O)C1CN(Cc2ccc(-n3cc4cc(Cc5ccccc5)ccc4n3)c(F)c2)C1` [Reference Compound 87, 1-(4-(5-Benzyl-2H-indazol-2-yl)-3-fluorobenzyl)azetidine-3-carboxylic acid]: the response was half-maximal at 94 nM (EC50).
As to `O=C(O)C1(O)CN(Cc2ccc(-c3cc4cc(Cc5ccccc5)ccc4o3)c(F)c2)C1` [Reference Compound 88, 1-((4-(5-Benzylbenzofuran-2-yl)-3-fluorophenyl)methyl)-3-hydroxyazetidine-3-carboxylic acid], the midpoint of the response, the EC50, lay at 105 nM.
Take `O=C(O)C1(O)CN(Cc2ccc(-c3nc4cc(Cc5ccccc5)ccc4s3)c(F)c2)C1` [Reference Compound 89, 1-((4-(5-Benzylbenzo[d]thiazol-2-yl)-3-fluorophenyl)methyl)-3-hydroxyazetidine-3-carboxylic acid]: the EC50 is 27 nM.
The compound `CC(c1ccccc1)c1ccc2oc(-c3ccc(CN4CC(C(=O)O)C4)cc3F)cc2c1` (stereo not drawn) [Reference Compound 90, 1-((3-Fluoro-4-(5-(1-phenylethyl)benzofuran-2-yl)phenyl)methyl)azetidine-3-carboxylic acid] gave an EC50 of 99 nM. Compared with the last compound, the EC50 is about 3.7-fold higher.
On to `O=C(O)C1CN(Cc2ccc(-c3cc4cc(C(F)(F)c5ccccc5)ccc4o3)c(F)c2)C1` [Reference Compound 91, 1-((4-(5-(Difluoro(phenyl)methyl)benzofuran-2-yl)-3-fluorophenyl)methyl)azetidine-3-carboxylic acid], for which it took 13 nM to reach a half-maximal effect (EC50).
With `O=C(O)C1CN(Cc2ccc(-c3cc4ccc(Cc5ccccc5)cc4o3)c(F)c2)C1` [Reference Compound 92, 1-((4-(6-Benzylbenzofuran-2-yl)-3-fluorophenyl)methyl)azetidine-3-carboxylic acid], the EC50 was 7 nM.
For `O=C(O)C1CN(Cc2ccc(-c3cc4cc(Cc5ccccn5)ccc4o3)c(F)c2)C1` [Reference Compound 93, 1-((3-Fluoro-4-(5-(pyridin-2-ylmethyl)benzofuran-2-yl)phenyl)methyl)azetidine-3-carboxylic acid], a half-maximal response (EC50) required 31 nM.

Usually EC50 stands for the concentration needed to bring the measured effect to its halfway point.
